Measurements published in patent US4179514A, “Ketoalkanesulfenyl and ketoalkanethiosulfenyl carbamates” (priority 1978, dated 1979).

What was measured:
Assay type in all cases: in vivo
[1] = peroral toxicity to mammals (rat); settings: in vivo, po, dose required to achieve mortality rate of 50 percent, read-out: A.O. RAT LD50
Procedure: (§1) Certain of these compositions were also evaluated to determine their peroral toxicity to mammals. The animal selected for this experiment was the rat. The test results obtained are expressed in terms of the number of milligrams of compositions per kilogram of weight of the animal required to achieve a mortality rate of 50 percent (LD50).

[2] = test system: root-knot nematode, Meloidogyne incognita var. acrita; assay: Nematocide Test; design: key: 1: severe galling, equal to untreated plants; 2: moderate galling; 3: light galling; 4: very light galling; 5: no galling, perfect control; settings: 3.33 m.g. of test compound per jar; cucumber, approximately 3 weeks
Procedure: The test organism used was the infective migratory larvae of the root-knot nematode, Meloidogyne incognita var. acrita, reared in the greenhouse on roots of cucumber plants. Infected plants were removed from the culture, and the roots are chopped very finely. A small amount of this inoculum was added to a pint jar containing approximately 180 cc. of soil. The jars were capped and incubated for one week at room temperature. During this period eggs of the nematode were hatched, and the larval forms migrated into the soil.
Ten ml. of the test formulation were added to each of the two jars for each dosage tested. Following the addition of chemical, the jars were capped, and the contents thoroughly mixed on a ball mill for 5 minutes.
The test compounds were formulated by a standard procedure of solution in acetone addition of an emulsifier, and dilution with water. Primary screening tests were conducted at 3.33 m.g. of the test compound per jar.
The jars were left capped at room temperature for a period of 48 hours, and the contents then transferred to 3 inch pots. Subsequently, the pots were seeded to cucumber as an indicator crop and placed in the greenhouse where they were cared for in the normal fashion for approximately 3 weeks.
The cucumber plants were then taken from the pots, the soil removed from the roots, and the amount of galling visually rated.
In the test for activity against nematodes activity was rated as follows: […]

rat = assay: peroral toxicity to mammals (rat); settings: dose required to achieve mortality rate of 50 percent
Procedure: as §1

Compound	LD50 [1] [mg/kg]	NEMATODES activity rating (galling) [2]	A.O. RAT LD50 (rat) [mg/kg]
CC(C)C(=O)C(C)(C)SN(C)C(=O)ON=C1SCOC1C (centres unmarked) [4-[[O-[N-methyl-N-(2,4-dimethyl-3-oxo-2-pentanesulfenyl)carbamoyl]oximino]]-5-methyl-1,3-oxathiolane]	16		
CC(=NOC(=O)N(C)SC(C)(C)C(=O)C(C)C)SC(C)C [1Isopropylthioacetaldehyde O-[N-methyl-N-(2,4-dimethyl-3-oxo-2-pentanesulfenyl)carbamoyl]oxime]	37	3	
CSC(C)=NOC(=O)N(C)SSC(C)(C)C(=O)C(C)C [1-Methylthioacetaldehyde 0-[N-methyl-N-(2,4-dimethyl-3-oxo-2-pentanethiosulfenyl)carbamoyl]oxime]	226	3	
CSC(C)=NOC(=O)N(C)SC(C)(C)C(=O)C(C)C [1-Methylthioacetaldehyde O-[N-methyl-N-(2,4-dimethyl-3-oxo-2-pentanesulfenyl)carbamoyl]oxime]	134	1	
CC(C)C(=O)C(C)(C)SN(C)C(=O)ON=C(C#N)c1ccccc1 [α-Cyanobenzaldehyde 0-[N-methyl-N-(2,4-dimethyl-3-oxo-2-pentanesulfenyl)carbamoyl]oxime]		3	
CC(C)C(=O)C(C)(C)SN(C)C(=O)ON=CC(C)(C)[N+](=O)[O-] [2-Nitro-2-methylpropionaldehyde O-[N-methyl-N-(2,4-dimethyl-3-oxo-2-pentanesulfenyl)carbamoyl]oxime]	12		
CSC(C)=NOC(=O)N(C)SSC(C)(C)C(=O)c1ccccc1 [1-Methylthioacetaldehyde O-[N-methyl-N-(2-benzoyl-2-propanethiosulfenyl)carbamoyl]oxime]	226		
CN(SC(C)(C)C(=O)c1ccccc1)C(=O)ON=C1SC(C)(C)C(=O)N1C [2-[[O-[N-methyl-N-(2-benzoyl-2-propanesulfenyl)carbamoyl]oximino]]-3,5,5-trimethylthiazolidin-4-one]		3	
CC(C)C(=O)C(C)(C)SN(C)C(=O)ON=C1CSCCS1 [2-[[O-[N-methyl-N-(2,4-dimethyl-3-oxo-2-pentanesulfenyl)carbamoyl]oximino]]-1,4-dithiane]		3	
CC(=NOC(=O)N(C)SSC(C)(C)C(=O)C(C)C)SC(C)C [1-Isopropylthioacetaldehyde 0-[N-methyl-N-(2,4-dimethyl-3-oxo-2-pentanethiosulfenyl)carbamoyl]oxime]	42	4	
CC(C)C(=O)C(C)(C)SN(C)C(=O)Oc1cccc2c1OC(C)(C)C2 [7-[N-methyl-N-(2,4-dimethyl-3-oxo-2-pentanesulfenyl)carbamoyloxy]-2,2-dimethyl-2,3-dihydrobenzofuran]	31		
CC(C)C(=O)C(C)(C)SN(C)C(=O)ON=C1SC(C)(C)C(=O)N1C [2-[O-[N-methyl-(2,4-dimethyl-3-oxo-2-pentanesulfenyl)carbamoyl]oximino]-3,5,5-trimethylthiazolidin-4-one]	226		
1-(2-Cyanoethylthio)acetaldehyde 0-[N-methyl-N-(2,4-dimethyl-3-oxo-2-pentanethiosulfenyl)carbamoyl]oxime		5	
4-[[0-[N-Methyl-N-(2,4-dimethyl-3-oxo-2-pentanethiosulfenyl)carbamoyl]oximino]]-5-methyl-1,3-oxathiolane		3	8
CSC(C)(C)C=NOC(=O)N(C)SC(C)(C)C(=O)C(C)C [2-Methylthio-2-methylpropionaldehyde O-[N-methyl-N-(2,4-dimethyl-3-oxo-2-pentanesulfenyl)carbamoyl]oxmine]		3	
